Results reported in patent US9506013B2 (priority 2010, dated 2016).
Values joined by “and” are separate entries in the source; they are usually repeats but may differ in a detail not shown here. Equal values may be shown once.

Legend:
[1] = assay type: physicochemical
[2] = test system: Pseudomonas aeruginosa and Staphylococcus aureas; assay type: cell-based
Pseudomonas aeruginosa = assay type: cell-based
Staphylococcus aureas = assay type: cell-based

Row | Compound | % Separation 1 h [1] | % Separation 24 h [1] | Adjuvant 1 h, emulsion stability, mL separation | Anionic 1 h, emulsion stability, mL separation | Nonionic 1 h, emulsion stability, mL separation | Adjuvant 24 h, emulsion stability, mL separation | Anionic 24 h, emulsion stability, mL separation | Nonionic 24 h, emulsion stability, mL separation | Overall Rating [2] | % Kill, 400 ppm (Pseudomonas aeruginosa) | % Kill, DI water (Pseudomonas aeruginosa) | % Kill, 400 ppm (Staphylococcus aureas) | % Kill, DI water (Staphylococcus aureas)
1 | CCC(CCCCCCCCC(=O)OCCOC)S(=O)(=O)[O-].[Na+] (centres unmarked) [C12-33, C12 eFAME Sulfonate] | 3.2 C and 3.9 C | 4 C and 4.1 C | 0 mL | 0 mL | 0.25 mL | 0 mL | 0 mL | 0.25 mL |  |  |  |  | 
2 | COCCOC(=O)CCCCCCCCC(CCCCCCCC(=O)OCCOC)S(=O)(=O)[O-].[Na+] (centres unmarked) [Mix-61, C18 eFAME Sulfonate] | 3.8 C and 3.7 C | 4 C and 3.9 C |  |  |  |  |  |  |  |  |  |  | 
3 | C10 6EO eFAME [C10-9] |  |  |  |  |  |  |  |  | good | 29.1% | 37.2% | 23.4% | 38.4%
4 | C10 24EO eFAME Sulfonate [C10-30] | 3.8 C and 2.8 C | 4 C and 3 C | 0 mL | 0 mL | 0.25 mL | 0 mL | 0 mL | 0.25 mL |  |  |  |  | 
5 | C10 24EO eFAME [C10-11] |  |  |  |  |  |  |  |  | good | 21.3% | 28.9% | 30.9% | 42.5%
6 | C12 6EO eFAME Sulfonate [C12-10] | 4 C and 3.8 C | 4.1 C and 4 C | 0 mL | 0 mL |  | 0 mL | 0 mL | 0.25 mL |  |  |  |  | 
7 | C12 6EO eFAME [C12-9] |  |  |  |  |  |  |  |  | good | 23.2% | 32.6% | 3.2% | 36.2%
8 | C12 27EO eFAME Sulfonate [C12-32] | 3 C and 2.9 C | 3.2 C | 0 mL | 0 mL | 0.5 mL | 0 mL | 0 mL | 0.5 mL |  |  |  |  | 
9 | C12 27EO eFAME [C12-11] |  |  |  |  |  |  |  |  | good | 30.1% | 34.9% | 36.2% | 42.7%
